{
  "source": "paper PMC8646019",
  "about": "“Azvudine is a thymus-homing anti-SARS-CoV-2 drug effective in treating COVID-19 patients” (Signal Transduction and Targeted Therapy, 2021)",
  "key": {"[1]": {"system": "PBMC", "assay_type": "in vivo, rhesus macaques", "conditions": "n = 4 for each group, with time, vs untreated"}, "[2]": {"system": "SARS-CoV-2", "test": "Multi-color immunofluorescence staining and tissue cytometry (Tissue FAXS) of infected rhesus macaque tissues", "assay_type": "in vivo, rhesus macaques", "source_text": "To further verify the antiviral effect of FNC in the thymus, viral S-protein in the thymus was detected with immune staining. […] Tissue ACE2 was stained red, and viral S-protein was stained green. More green signals were detected in the thymus of the untreated monkey than in the FNC-treated one. Viral S-protein was quantitatively measured in the thymus with the Tissue FAXS platform and Tissue Quest software (Tissue Gnostics).[10],[26]–[30] […] The results of all eight monkeys are shown in Supplementary Fig. 10. […] Further evaluation of thymus cells undergoing programmed death was done with TUNEL staining, followed by quantitation with Tissue FAXS platform and Tissue Quest software (Tissue Gnostics, described in Methods). As shown in Supplementary Fig. 11, the number of apoptotic thymus cells from the untreated virus (+) monkeys was much higher than that from the FNC-treated ones.\nFig. 5 FNC-protected thymus from the damage by SARS-CoV-2 infection. By the end of the experiment, the RM monkeys have practiced euthanasia, and the thymus samples were collected. a The representative images of the multi-color immunofluorescent staining were for ACE2 (red) and S protein (green) in the thymus of the RM monkeys that were inoculated with SARS-CoV-2 and treated or untreated with FNC. The regions of interest (ROI) are boxed in white, and their magnified photos are shown in the middle, with a decomposition diagram on the right. […] The regions of interest (ROI) are boxed in white, and their magnified photos are shown below. Data are presented as mean ± SEM (n = 4), *p < 0.05, FNC-treated group vs. untreated group, by Mann–Whitney U test TEXT PRINTED IN THE PICTURE: (b) FNC: ACE2 Mean Intensity / ACE2 Area (um2): 26.43%; S-protein Mean Intensity / S protein Area (um2): 9.83% DOUBTS OF THE COPYIST ABOUT THIS PICTURE: Panel b prints no group label. […] They are left out because an untreated control is not a substance. / The percentages in panel b have no printed measure. The axis titles of each plot were used as the measure.\nTyramide Signal Amplification (TSA)^3 method was used for single staining of IL-4, IL-10, IL13, RORγt and tunnel; double staining of CD3 and CD20, ACE2 and S-protein; as well as triple staining of CD3, CD4 and CD8; ACE2, S-protein and N-protein. In brief, for each marker, the samples were treated with rabbit primary antibody and then incubated with HRP-conjugated goat anti-rabbit secondary antibody. After washing, slides were incubated with fluorescent reagent then heated with microwave oven to remove the combined antibodies. The antibodies were in Table S5.\nAs described by Kaneko and colleagues,^4 microscopy-based multi color tissue cytometry was applied for quantitative analysis. In brief, images of the tissue specimens were acquired through the Tissue FAXS platform (Tissue Gnostics).^5,6 The area of the detected tissue was acquired as a digital gray scale image in four channels with filter settings for FITC, Cy3, Cy5 and DAPI. Cells of each phenotype were identified and quantitated, relative to the positive controls."}, "[3]": {"system": "viral replication", "conditions": "FNC compound itself, not phosphorylated; cited from earlier work"}, "[4]": {"system": "SARS-CoV-2", "test": "Clinical trial of FNC on compassionate use in COVID-19 patients"}, "[5]": {"system": "thymus cells", "assay_type": "in vivo, rhesus macaques"}, "[6]": {"conditions": "FNC-treated monkeys, n = 4, Tissue FAXS"}, "[7]": {"conditions": "drug combination no: FNC only, N = 15"}, "[8]": {"conditions": "drug combination no: FNC only, N = 15, mean ± SD"}, "[9]": {"conditions": "drug combination yes: FNC plus TCM or/and other antivirals, N = 16, mean ± SD"}, "[10]": {"conditions": "individual COVID-19 patient (one per table line)"}, "[11]": {"conditions": "moderate COVID-19, n = 26, mean ± SD"}, "[12]": {"conditions": "severe COVID-19, n = 5, mean ± SD"}, "[13]": {"conditions": "FNC-treated monkey #17368, scRNA-seq"}},
  "note": "Values joined by “and” are separate entries in the source; they are usually repeats but may differ in a detail not shown here. Equal entries are not always repeated. “Also recorded” adds a separate entry of the source.",
  "data": [
    {"smiles": "[N-]=[N+]=N[C@]1(CO)O[C@@H](n2ccc(N)nc2=O)[C@@H](F)[C@@H]1O", "note": "[FNC, 2′-deoxy-2′-β-fluoro-4′-azidocytidine]", "values": [
      {"measurement": "percentage of CD3+, CD4+, and CD8+ cells in the peripheral blood", "setting": "[1]", "value": "increased"},
      {"measurement": "viral S- and N-protein signal in the lung (immune staining)", "setting": "[2]; FNC-treated monkeys vs untreated", "value": "noticeably reduced"},
      {"measurement": "S-protein-positive cells in thymus, proportion", "setting": "[2]; [6]", "value": "8.36 ± 4.84", "unit": "%"},
      {"measurement": "absolute numbers of ACE2+ cells in thymus", "setting": "[2]; [6]", "value": "38,929 ± 19,470 cells"},
      {"measurement": "number of S-protein-positive cells in thymus", "setting": "[2]; [6]", "value": "8941 ± 5436", "unit": "cells"},
      {"measurement": "relative proportion of ACE2+ cells in thymus", "setting": "[2]; [6]", "value": "35.96 ± 16.90", "unit": "%"},
      {"measurement": "inhibiting viral replication in vitro", "setting": "[3]", "value": "almost inactive"},
      {"measurement": "Recovery rate", "setting": "[4]; all 31 COVID-19 patients", "value": "100% (31/31)"},
      {"measurement": "Time from FNC treatment to SARS-CoV-2 negative conversion, median", "setting": "[4]; all 31 COVID-19 patients", "value": 3.0, "unit": "days"},
      {"measurement": "Time from FNC treatment to SARS-CoV-2 negative conversion, range", "setting": "[4]; all 31 COVID-19 patients", "value": "1 to 9", "unit": "days"},
      {"measurement": "Time from FNC treatment to discharge from the hospital, average", "setting": "[4]; all 31 COVID-19 patients", "value": "9.00 ± 4.93 days and 9.00 days"},
      {"measurement": "Time from FNC treatment to discharge from the hospital, median", "setting": "[4]; all 31 COVID-19 patients", "value": 9.0, "unit": "days"},
      {"measurement": "Time from FNC treatment to discharge from the hospital, range", "setting": "[4]; all 31 COVID-19 patients", "value": "2 to 25", "unit": "days"},
      {"measurement": "deaths in the trial", "setting": "[4]; all 31 COVID-19 patients", "value": "No patients died"},
      {"measurement": "hospital discharge rate", "setting": "[4]; all 31 COVID-19 patients", "value": 100, "unit": "%"},
      {"measurement": "viral ribonucleic acid negative conversion, share of patients", "setting": "[4]; all 31 COVID-19 patients", "value": 100, "unit": "%"},
      {"measurement": "Time from FNC treatment to SARS-CoV-2 negative conversion, average", "setting": "[4]; all 31 COVID-19 patients, oral FNC 5 mg qd", "value": "3.29 ± 2.22 days and 3.29 days"},
      {"measurement": "Recovery rate", "setting": "[4]; [7]", "value": "100% (16/16)"},
      {"measurement": "Side effect", "setting": "[4]; [7]", "value": "13.3% (2/15)"},
      {"measurement": "Time from FNC treatment to SARS-CoV-2 negative conversion", "setting": "[4]; [8]", "value": "2.13 ± 1.30", "unit": "days"},
      {"measurement": "Time from FNC treatment to discharge from the hospital", "setting": "[4]; [8]", "value": "8.67 ± 6.24", "unit": "days"},
      {"measurement": "Recovery rate", "setting": "[4]; drug combination yes, N = 16", "value": "100% (16/16)"},
      {"measurement": "Side effect", "setting": "[4]; drug combination yes, N = 16", "value": "18.8% (3/16)"},
      {"measurement": "Time from FNC treatment to SARS-CoV-2 negative conversion", "setting": "[4]; [9]", "value": "4.38 ± 2.39", "unit": "days"},
      {"measurement": "Time from FNC treatment to discharge from the hospital", "setting": "[4]; [9]", "value": "9.31 ± 3.46", "unit": "days"},
      {"measurement": "Side effect", "setting": "[4]; [10]", "value": "Dizziness (fist day); also recorded: Low counts of Platelet and Fibrinogen (first day); also recorded: Dizziness, Nausea, Vomit (first day); also recorded: Dizziness, Insomnia, Vomit (first day)"},
      {"measurement": "Time from FNC treatment to discharge from the hospital", "setting": "[4]; [10]", "value": "6 days and 7 days and 5 days"},
      {"measurement": "Time from FNC treatment to SARS-CoV-2 negative conversion", "setting": "[4]; individual COVID-19 patient (one per table line; dosage and combination treatment as in the line)", "value": 6, "unit": "days"},
      {"measurement": "Recovery rate", "setting": "[4]; moderate COVID-19, n = 26", "value": "100% (26/26)"},
      {"measurement": "Time from FNC treatment to SARS-CoV-2 negative conversion", "setting": "[4]; [11]", "value": "3.35 ± 2.13", "unit": "days"},
      {"measurement": "Time from FNC treatment to discharge from the hospital", "setting": "[4]; [11]", "value": "9.65 ± 4.91", "unit": "days"},
      {"measurement": "Recovery rate", "setting": "[4]; self-controlled comparison, 11 patients", "value": "100% (11/11)"},
      {"measurement": "Time from drug treatment to SARS-CoV-2 negative conversion", "setting": "[4]; self-controlled comparison, 11 patients first treated with known antivirals, then FNC alone, mean ± SD", "value": "1.73 ± 0.79", "unit": "days"},
      {"measurement": "Time from FNC treatment to discharge from the hospital", "setting": "[4]; self-controlled comparison, 11 patients, mean ± SD", "value": "9.09 ± 7.27", "unit": "days"},
      {"measurement": "Recovery rate", "setting": "[4]; severe COVID-19, n = 5", "value": "100% (5/5)"},
      {"measurement": "Side effect", "setting": "[4]; severe COVID-19, n = 5", "value": "40% (2/5)"},
      {"measurement": "Time from FNC treatment to SARS-CoV-2 negative conversion", "setting": "[4]; [12]", "value": "3.00 ± 2.92", "unit": "days"},
      {"measurement": "Time from FNC treatment to discharge from the hospital", "setting": "[4]; [12]", "value": "5.60 ± 3.78", "unit": "days"},
      {"measurement": "Proportion of B cells in thymus", "setting": "[5]; [13]", "value": 4.1, "unit": "%"},
      {"measurement": "Proportion of CD4 cells in thymus", "setting": "[5]; [13]", "value": 17.5, "unit": "%"},
      {"measurement": "Proportion of CD8 cells in thymus", "setting": "[5]; [13]", "value": 22.8, "unit": "%"},
      {"measurement": "Proportion of NKT cells in thymus", "setting": "[5]; [13]", "value": 4.6, "unit": "%"},
      {"measurement": "expression of IL-4, IL-13, and IL-10 in the thymus cells", "setting": "[5]; FNC-treated monkey #17368 vs untreated #17041", "value": "elevated"}
    ]}
  ]
}
